Non-standard residues stand in square brackets, D forms with d. *: point of attachment. Phe(3-I) = N[C@@H](Cc1cccc(I)c1)C(=O)O; ACC = NC(=O)Cc1cc(=O)oc2cc(N*)ccc12; hCha = N[C@@H](CCC1CCCCC1)C(=O)O; hPhe = N[C@@H](CCc1ccccc1)C(=O)O; 3Pal = N[C@@H](Cc1cccnc1)C(=O)O; OBn = c1ccc(CO*)cc1
Tests used:
THP-1 cells = experiment: Protein analysis of PMA-differentiated THP-1 cells (Western blot); assay type: cell-based, human; details: for GSDMD cleavage / caspase-1 processing to p10 fragment / vimentin and GSDMD protein levels: 1 h pretreatment before 40 nM PMA; for GSDMD cleavage / caspase-1 processing to p10 fragment: BAPTA 10 μM, calpeptin 100 μM; for caspase-1 processing to p10 fragment / vimentin and GSDMD protein levels: Cl-amidine 25 μM, Z-DEVD-FMK 10 μM, VX-765 10 μM
Experimental: Low-passage THP-1 cells were seeded into 12-well plates and treated with increasing concentrations of phorbol 12-myristate 13-acetate (PMA) ranging from 1 nM to 100 nM. The cells were incubated for 24 h to allow adherence and differentiation. Following incubation, the cells were lysed, and the lysates were subjected to SDS-PAGE (200 V, 30 min) and Western blot analysis. The expression and cleavage of vimentin, gasdermin D (GSDMD), NLRP3, and caspase-1 were analyzed using specific primary antibodies (1:500–1:1,000), followed by incubation with an antirabbit secondary antibody conjugated to Alexa Fluor 800 (1:10,000). Fluorescence signals were detected using an Azure Biosystems Sapphire RGB-NIR biomolecular imager. Ponceau S staining was used as a loading control to ensure equal protein loading in each lane. In a subsequent experiment, THP-1 cells were pretreated with specific inhibitors for 1 h prior to PMA-induced differentiation (40 nM PMA). The inhibitors used were: BAPTA (10 μM, calcium chelator), calpeptin (100 μM, calpain inhibitor), 4-bisindolylmaleimide (25 μM, PKC inhibitor), N-α-benzoyl-N5-(2-chloro-1-iminoethyl)-L-Orn amide or Cl-amidine (25 μM, pan PAD inhibitor, PADi), Z-DEVD-FMK (10 μM, caspase-3 inhibitor), and VX-765 (10 μM, caspase-1 inhibitor). After PMA treatment, the cells were lysed, and the lysates were processed for SDS-PAGE (200 V, 30 min) and Western blotting. Protein detection and visualization were performed in the same manner as in the cell-based experiments without inhibitors.

[1] = tested on: PMA/LPS-treated THP-1 cells; experiment: Western blot of GSDMD and IL-1β processing after DAMP treatment; assay type: cell-based, human
Experimental: THP-1 cells were seeded and stimulated with PMA and LPS, as described in “Protein analysis of PMA-differentiated THP-1 cells” section. After stimulation, vimentin, citrullinated vimentin, or their cleavage products-generated by caspase-3 or calpain-1 digestion were added to the cells, which were then incubated for an additional 48 h. Following incubation, lactate dehydrogenase (LDH) activity in the supernatant was measured using the CytoTox 96 Non-Radioactive Cytotoxicity Assay (G1718) as an indicator of membrane disruption, according to the manufacturer’s protocol. Cytotoxicity was calculated as the percentage of LDH released from the treated samples relative to the LDH release induced by the lysis buffer and normalized to the spontaneous release from the control cells. Absorbance was measured at 490 nm using a spectrophotometric microplate reader (Gemini XPS, Molecular Devices). All experiments were independently performed in triplicate. Statistical analyses were performed using GraphPad Prism software (GraphPad Software, Inc., La Jolla, CA, USA). One-way ANOVA followed by Tukey’s multiple comparisons posthoc test was used to determine statistical significance. For Western blot analysis, proteins from the cell lysates were prepared as described in “Protein analysis of PMA-differentiated THP-1 cells”. To isolate proteins from the supernatant, 1 mL of the sample was mixed with 0.5 mL of 30% trichloroacetic acid (TCA) at room temperature and incubated on ice for 30 min. The mixture was centrifuged at 12,000 × g for 20 min at 4 °C. The supernatant was discarded, and the pellet was washed with 100 μL of 10% TCA, followed by centrifugation. The pellet was then washed with 300 μL of acetone, centrifuged again, and allowed to dry completely. The remaining residues were dissolved in SDS-PAGE loading buffer under reducing conditions. Proteins of interest were detected using primary antibodies against GSDMD and interleukin-1β (IL-1β), followed by secondary antirabbit antibodies conjugated with Alexa Fluor 800. Fluorescence signals were visualized using an Azure Biosystems Sapphire RGB-NIR biomolecular imager. Ponceau S staining was used as a loading control to verify equal protein loading in the SDS-PAGE.

PAD4 [2] = experiment: Trypsin-coupled fluorogenic citrullination assay of ACC substrates with recombinant PAD4; assay type: biochemical, human; details: for selectivity for PAD4 over PAD2: comparison of citrullination by PAD4 and PAD2, 37.5-300 nM enzyme; for citrullination of substrate by PAD4: substrate 10 μM, PAD4 37.5-300 nM, 15 min preincubation, then trypsin 5 nM, ACC fluorescence ex 355/em 460 nm, pH 7.2, 5 mM CaCl2, triplicate
Experimental: (§1) All kinetic studies were conducted using an fMax fluorescence plate reader (Molecular Devices) operating in the fluorescence kinetic mode with 96- or 384-well plates. The fluorescence of ACC was monitored at excitation and emission wavelengths of 355 and 460 nm, respectively. The assay buffers for PADs and trypsin consisted of 100 mM TRIS-HCl, 10 mM NaCl, 5 mM CaCl2, and 5 mM DTT (pH 7.2). All experiments, including library screening and substrate kinetics, were repeated at least three times and the average values were reported. Kinetic data were analyzed using GraphPad Prism software (version 10.2.0).
(§2) Substrate screening for PAD2 and PAD4 was performed at a final substrate concentration of 10 μM, as described in “PAD substrate specificity profiling section”. PAD2 and PAD4 were tested across a concentration range of 37.5 nM to 300 nM, whereas the trypsin concentration was 5 nM. Briefly, each substrate was preincubated with the specified concentration of PAD in a 50 μL reaction volume (or in 50 μL of buffer for PAD-untreated control) for 15 min, after which 50 μL of trypsin was added to the reaction wells. The hydrolysis of Arg-containing substrates by trypsin was monitored over time. The percentage of substrate citrullination was calculated by comparing the extent of trypsin-mediated cleavage of untreated substrates with that of substrates preincubated with PAD. Each assay was performed in triplicate, and the resulting citrullination percentages are presented graphically. The standard deviation of each data point was less than 15%.

PAD2 = experiment: Trypsin-coupled fluorogenic citrullination assay of ACC substrates with recombinant PAD2; assay type: biochemical, human; details: for citrullination of substrate by PAD2: substrate 10 μM, PAD2 37.5-300 nM (effective at 150-300 nM), 15 min preincubation, then trypsin 5 nM, ACC fluorescence ex 355/em 460 nm, pH 7.2, 5 mM CaCl2, triplicate; for selectivity for PAD2 over PAD4: comparison of citrullination by PAD2 and PAD4, 37.5-300 nM enzyme
Experimental: as §1, §2

PAD4 [3] = experiment: Vimentin citrullination assay (Western blot); assay type: biochemical, human; details: recombinant vimentin 80 μg, 100 nM PAD4, 5-60 min
Experimental: Recombinant vimentin (80 μg) was incubated with 100 nM PAD4 for varying durations (5–60 min). Following incubation, the samples were subjected to SDS-PAGE, and the proteins were subsequently transferred onto a nitrocellulose membrane. Western blot analysis was performed using antivimentin and anticitrullinated vimentin antibodies, followed by a secondary antibody conjugated to Alexa Fluor 800 to assess the time-dependent decrease in native vimentin levels and the corresponding increase in citrullinated vimentin levels. Subsequently, both native and citrullinated vimentin were incubated with either human recombinant caspase-3 (20 nM) or calpain-1 (10 nM) for 30 min. After incubation, the samples were analyzed by SDS-PAGE followed by colloidal Coomassie dye G-250 (Thermo, 24590) staining.

O=C(O)CN(CC(=O)O)c1ccccc1OCCOc1ccccc1N(CC(=O)O)CC(=O)O [BAPTA]
GSDMD cleavage (THP-1 cells): cleavage of GSDMD
caspase-1 processing to p10 fragment (THP-1 cells): processed into its active 10 kDa fragment

N=C(CCl)NCCC[C@H](NC(=O)c1ccccc1)C(N)=O [Cl-amidine, N-α-benzoyl-N5-(2-chloro-1-iminoethyl)-L-Orn amide]
caspase-1 processing to p10 fragment (THP-1 cells): prevented
vimentin and GSDMD protein levels (THP-1 cells): marked downregulation

CCCCCCCCCCCCCC(=O)O[C@@H]1[C@@H](C)[C@@]2(O)[C@@H](C=C(CO)C[C@]3(O)C(=O)C(C)=C[C@@H]23)[C@@H]2C(C)(C)[C@]12OC(C)=O [PMA, phorbol 12-myristate 13-acetate]
GSDMD and NLRP3 protein levels (THP-1 cells; PMA 1-100 nM, 24 h): downregulating
vimentin protein level (THP-1 cells; PMA 1-100 nM, 24 h): dose-dependent upregulation

CCO[C@@H]1OC(=O)C[C@@H]1NC(=O)[C@@H]1CCCN1C(=O)[C@@H](NC(=O)c1ccc(N)c(Cl)c1)C(C)(C)C [VX-765]
caspase-1 processing to p10 fragment (THP-1 cells): prevented
vimentin and GSDMD protein levels (THP-1 cells): marked downregulation

COC(=O)CC[C@H](NC(=O)[C@H](CC(=O)OC)NC(=O)OCc1ccccc1)C(=O)N[C@H](C(=O)N[C@@H](CC(=O)OC)C(=O)CF)C(C)C [Z-DEVD-fmk, Z-DEVD-FMK]
caspase-1 processing to p10 fragment (THP-1 cells): prevented
vimentin and GSDMD protein levels (THP-1 cells): marked downregulation

CCCC[C@@H](C=O)NC(=O)[C@H](CC(C)C)NC(=O)OCc1ccccc1 [calpeptin]
GSDMD cleavage (THP-1 cells): cleavage of GSDMD
caspase-1 processing to p10 fragment (THP-1 cells): processed into its active 10 kDa fragment

CO[C@@H]1C[C@@H](C[C@H]2CC[C@H](C)[C@H]([C@@H](C)C(=O)O)O2)O[C@]2(O[C@](C)([C@H]3CC[C@@](C)([C@@H]4O[C@@H]([C@H]5O[C@@](O)(CO)[C@H](C)C[C@@H]5C)C[C@@H]4C)O3)C[C@H]2C)[C@@H]1C [nigericin, reference compound]
GSDMD processing fragment [1]: p31 fragment
pro-IL-1β processing [1]: activation of pro-interleukin-1β

Ac-D(OBn)[dY]DR-{ACC} (SMILES CC(=O)N[C@@H](CC(=O)OCc1ccccc1)C(=O)N[C@H](Cc1ccc(O)cc1)C(=O)N[C@@H](CC(=O)O)C(=O)N[C@@H](CCCNC(=N)N)C(=O)Nc1ccc2c(CC(N)=O)cc(=O)oc2c1) [(4)-NH-2]
selectivity for PAD4 over PAD2 (PAD4 [2]): most selective
citrullination of substrate by PAD4 (PAD4 [2]): efficiently processed
citrullination of substrate by PAD2 (PAD2): poorly recognized

Ac-D(OBn)[hCha]DR-{ACC} (SMILES CC(=O)N[C@@H](CC(=O)OCc1ccccc1)C(=O)N[C@@H](CCC1CCCCC1)C(=O)N[C@@H](CC(=O)O)C(=O)N[C@@H](CCCNC(=N)N)C(=O)Nc1ccc2c(CC(N)=O)cc(=O)oc2c1) [(4)-NH-11]
citrullination of substrate by PAD2 (PAD2): some degree of cross-reactivity

Ac-NV[hCha]R-{ACC} (SMILES CC(=O)N[C@@H](CC(N)=O)C(=O)N[C@H](C(=O)N[C@@H](CCC1CCCCC1)C(=O)N[C@@H](CCCNC(=N)N)C(=O)Nc1ccc2c(CC(N)=O)cc(=O)oc2c1)C(C)C) [(2)-NH-8]
citrullination of substrate by PAD4 (PAD4 [2]): only minor processing
selectivity for PAD2 over PAD4 (PAD2): most selective
citrullination of substrate by PAD2 (PAD2): higher reactivity

Ac-[Phe(3-I)][3Pal]DR-{ACC} (SMILES CC(=O)N[C@@H](Cc1cccc(I)c1)C(=O)N[C@@H](Cc1cccnc1)C(=O)N[C@@H](CC(=O)O)C(=O)N[C@@H](CCCNC(=N)N)C(=O)Nc1ccc2c(CC(N)=O)cc(=O)oc2c1) [(4)-NH-12]
selectivity for PAD4 over PAD2 (PAD4 [2]): most selective
citrullination of substrate by PAD4 (PAD4 [2]): efficiently processed
citrullination of substrate by PAD2 (PAD2): poorly recognized

Ac-[Phe(3-I)][hCha]DR-{ACC} (SMILES CC(=O)N[C@@H](Cc1cccc(I)c1)C(=O)N[C@@H](CCC1CCCCC1)C(=O)N[C@@H](CC(=O)O)C(=O)N[C@@H](CCCNC(=N)N)C(=O)Nc1ccc2c(CC(N)=O)cc(=O)oc2c1) [(4)-NH-13]
citrullination of substrate by PAD2 (PAD2): some degree of cross-reactivity

Ac-[dY]A[hPhe]R-{ACC} (SMILES CC(=O)N[C@H](Cc1ccc(O)cc1)C(=O)N[C@@H](C)C(=O)N[C@@H](CCc1ccccc1)C(=O)N[C@@H](CCCNC(=N)N)C(=O)Nc1ccc2c(CC(N)=O)cc(=O)oc2c1) [(2)-NH-7]
citrullination of substrate by PAD4 (PAD4 [2]): only minor processing
selectivity for PAD2 over PAD4 (PAD2): most selective
citrullination of substrate by PAD2 (PAD2): higher reactivity

citrullinated vimentin: PAD4-mediated citrullinated vimentin
pro-IL-1β processing [1]: no cleavage

vimentin: Recombinant vimentin, purchased from Biotechne (NBP2-35139)
citrullination of vimentin by PAD4 (PAD4 [3]): efficient citrullination
pro-IL-1β processing [1]: no cleavage

Source: publication PMC12509316, “Isoform-Selective PAD2/PAD4 Substrates with Unnatural Amino Acids Enable Cellular Peptidylarginine Deiminase Activity Profiling and Reveal Vimentin Citrullination Effects in Macrophages” (Biochemistry, 2025)
